Source: patent US20230382940A1, “ANTIVIRAL COMPOUNDS AND METHODS OF MAKING AND USING THE SAME” (Gilead Sciences, Inc., priority 2022, published 2023)
Like-named read-outs stand apart in the source and are kept apart here.

Assays:
[1] = GI S9 stability, cyno, Example Y; format: in vitro ADME; settings: cynomolgus monkey, pooled intestinal S9 fractions; cyno intestinal S9, 1.0 mg/mL protein, 2 μM compound, pH 7.4; read-out: GIS9 Cyno T½ (per Ex. Y)
Experimental: (§1) Example Y: GI S9 Stability Data
(§2) Stock solutions of test compounds in dimethyl sulfoxide (DMSO) having a final concentration of 10 mM were prepared and used in all experiments. Sekisui XenoTech (Kansas City, KS) provided pooled intestinal S9 fractions. All other chemicals were purchased from Sigma-Aldrich (St. Louis, MO) or VWR (West Chester, PA). Internal Standard/Quench (IS/Q) used to stop reactions was 100 nM labetalol in (by volume) methanol (10%) and acetonitrile (90%).
(§3) Stability in Intestinal S9 Fractions: Duplicate aliquots of test compound or positive control substrate were added to S9 stock diluted with phosphate buffered saline (137 mM NaCl, 2.7 mM KCl, 10 mM phosphate buffer), pH 7.4, to obtain a protein concentration of 1.0 mg/mL. The metabolic reactions were initiated by the addition of the substrates to the S9 reaction mixture to a final concentration of 2 μM. At 0, 10, 20, 30, 60 and 120 min, 25 μL aliquots of the reaction mixture were transferred to plates containing 225 μl of IS/Q solution. After quenching, the plates were centrifuged at 3000×g for 30 minutes. 150 μL aliquots of each supernatant were dried down then reconstituted with 300 μL water. Aliquots (10 μL) of the prepared samples were analyzed on a Thermo Q-Exactive mass spectrometer as described below.
(§4) Liquid Chromatography—Mass Spectrometry: Quantification of test compounds and control substrate was performed by analyte/internal standard peak area ratio (PAR) values measured on a Thermo Q-Exactive mass spectrometer coupled to a Dionex UltiMate 3000 HPLC with a Leap Technologies HTC PAL autosampler. The column used for analysis was a Waters Acquity BEH C18 (1.7 μm particle size, 2.1×50 mm). Mobile phase A consisted of 0.1% (v/v) formic acid in water. Mobile phase B consisted of 0.1% (v/v) formic acid in acetonitrile. Elution of analytes was achieved by a series of linear gradients varying the proportions of A and B. The mass spectrometer was calibrated on a weekly basis and mass tolerance of 5 ppm was used.
(§5) Metabolic stabilities in S9 fractions were determined by measuring the rates of disappearance of test compound and positive control substrate.
(§6) Data (% of substrate remaining) were plotted on a semi-log scale and fitted using an exponential decline model:
(§7) Ct=C0×e^−ln2/T1/2×t • Where Ct—% of substrate remaining at time=t; C0—% of substrate remaining at time=0; t—time; T1/2—half-life. • The Half-life (T1/2) is determined by the following equation: […]
(§8) Assuming a first-order reaction, the slope (k) is extrapolated from the aforementioned plotted data.

[2] = GI S9 stability, dog, Example Y; format: in vitro ADME; settings: dog intestinal S9, 1.0 mg/mL protein, 2 μM compound, pH 7.4; for half-life at 2 μM: pooled intestinal S9 fractions, read-out: GIS9 DOG T½ (per Ex. Y)
Experimental: as §1, §2, §3, §4, §5, §6, §7, §8

[3] = tested on: Human Rhinovirus 16 (HRV16); experiment: H1-HeLa HRV-CTG 384-well assay, HRV16, Example X; format: cell-based; settings: Rhinovirus A, 96 h, read-out: EC50 H1-HeLa_HRV 16_HRV-CTG 384-well Assay (per Ex. X)
Excerpt: Example X: H1-HeLa HRV-CTG 384-Well Assay
H1-Hela cell line (ATCC, Manassas, VA, Cat #CRL-1958) was maintained in Dulbecco's […] (DMEM) (Corning, New York, NY, Cat #15-018CM) supplemented with 10% fetal bovine serum (FBS) (Hyclone, Logan, UT, Cat #SH30071-03), and 1× Penicillin-Streptomycin-L-Glutamine (Corning, New York, NY, Cat #30-009-CI). Cells were passaged 2 times per week to maintain sub-confluent densities and were used for experiments at passage 5-30. The Human Rhinovirus 1B (HRV1B) (ATCC, Manassas, VA, Cat #VR-1645), Human Rhinovirus 14 (HRV14) (ATCC, Manassas, VA, Cat #VR-284), and Human Rhinovirus 16 (HRV16) (ATCC, Manassas, VA, Cat #BR-283) was obtained through ATCC. Viral infection was monitored by determining viability of H1-HeLa cells as described below.
Test molecules are prepared in 100% DMSO in 384-well polypropylene plates (Greiner, Monroe, NC, Cat #784201) with 8 compounds per plate in grouped replicates of 4 at 10 serially diluted concentrations (1:3). The serially diluted compounds were transferred to low dead volume Echo plates (Labcyte, Sunnyvale, CA, Cat #LP-0200).
The test compounds were spotted to 384-well assay plates (Greiner, Monroe, NC, Cat #781091) at 200 nL per well using an Echo acoustic dispenser (Labcyte, Sunnyvale, CA). H1-HeLa cells were harvested and suspended in DMEM (supplemented with 2% FBS and 1× Penicillin-Streptomycin-L-Glutamine) and seeded to the pre-spotted assay plates at 5,000 cells per well in 30 μL. HRV1B, HRV14, and HRV16 was diluted in DMEM (supplemented with 2% FBS and 1× Penicillin-Streptomycin-L-Glutamine) at 97.1 million Infectious Units (IU) per mL, 151 million IU per mL and 221 million IU per mL respectively. 10 μL of virus per well was added to the assay plates containing cells and compounds, for an MOI of 0.5, 1.0, and 0.25 respectively. The assay plates were incubated for 4 days at 37° C. and 5% CO2. At the end of incubation, Celltiter-Glo (Promega, Madison, WI, Cat #G7573) was prepared. The assay plates and Celltiter-Glo reagent were equilibrated to room temperature for at least 15 minutes. 40 μL per well of Celltiter-Glo reagent was added and the plates were incubated at room temperature for 15 minutes before reading the luminescence signal on an EnVision multimode plate reader (Perkin Elmer, Waltham, MA). Rupintrivir was used as positive control and DMSO was used as negative control. Values were normalized to the positive and negative controls (as 0% and 100% replication, respectively) and data was fitted using non-linear regression analysis by Gilead's dose response tool. The EC50 value for each compound was defined as the concentration reducing viral replication by 50%.

[4] = H1-HeLa cells, HRV16 MOI 0.25, 4 days, Celltiter-Glo

SMILES	half-life at 2 μM [1]	half-life at 2 μM [2]	EC50 [3, 4]	GIS9 DOG T½ (per Ex. Y) [2]	EC50 ([3]; HRV16, H1-HeLa)
N#C[C@]1(COC(=O)OC2CCCC2)O[C@@H](c2ccc3c(N)ncnn23)[C@H](O)[C@@H]1O [Compound 1, ((2R,3S,4R,5S)-5-(4-aminopyrrolo[2,1-f][1,2,4]triazin-7-yl)-2-cyano-3,4-dihydroxytetrahydrofuran-2-yl)methyl cyclopentyl carbonate]	0.183 h	4.27 h	31.2 µM		
CC(C)(C)COC(=O)OC[C@@]1(C#N)O[C@@H](c2ccc3c(N)ncnn23)[C@H](O)[C@@H]1O [Compound 2, ((2R,3S,4R,5S)-5-(4-aminopyrrolo[2,1-f][1,2,4]triazin-7-yl)-2-cyano-3,4-dihydroxytetrahydrofuran-2-yl)methyl neopentyl carbonate]	0.0667 h	2.7 h	9.74 µM		
CC[C@H](C)OC(=O)OC[C@@]1(C#N)O[C@@H](c2ccc3c(N)ncnn23)[C@H](O)[C@@H]1O [Compound 4, ((2R,3S,4R,5S)-5-(4-aminopyrrolo[2,1-f][1,2,4]triazin-7-yl)-2-cyano-3,4-dihydroxytetrahydrofuran-2-yl)methyl ((S)-sec-butyl) carbonate]	0.367 h	7.7 h	38.6 µM		
COC(=O)OC[C@@]1(C#N)O[C@@H](c2ccc3c(N)ncnn23)[C@H](O)[C@@H]1O [Compound 6, ((2R,3S,4R,5S)-5-(4-aminopyrrolo[2,1-f][1,2,4]triazin-7-yl)-2-cyano-3,4-dihydroxytetrahydrofuran-2-yl)methyl methyl carbonate]	0.633 h		13.7 µM	13.2 h	
CC(C)COC(=O)OC[C@@]1(C#N)O[C@@H](c2ccc3c(N)ncnn23)[C@H](O)[C@@H]1O [Compound 8, ((2R,3S,4R,5S)-5-(4-aminopyrrolo[2,1-f][1,2,4]triazin-7-yl)-2-cyano-3,4-dihydroxytetrahydrofuran-2-yl)methyl isobutyl carbonate]	0.133 h	5.18 h	9.82 µM		
CCCOC(=O)OC[C@@]1(C#N)O[C@@H](c2ccc3c(N)ncnn23)[C@H](O)[C@@H]1O [Compound 9, ((2R,3S,4R,5S)-5-(4-aminopyrrolo[2,1-f][1,2,4]triazin-7-yl)-2-cyano-3,4-dihydroxytetrahydrofuran-2-yl)methyl propyl carbonate]	0.317 h	2.6 h	10.9 µM		
CC[C@@H](C)OC(=O)OC[C@@]1(C#N)O[C@@H](c2ccc3c(N)ncnn23)[C@H](O)[C@@H]1O [Compound 10, ((2R,3S,4R,5S)-5-(4-aminopyrrolo[2,1-f][1,2,4]triazin-7-yl)-2-cyano-3,4-dihydroxytetrahydrofuran-2-yl)methyl ((R)-sec-butyl) carbonate]	0.15 h		36.7 µM	13.2 h	
CC(C)OC(=O)OC[C@@]1(C#N)O[C@@H](c2ccc3c(N)ncnn23)[C@H](O)[C@@H]1O [Compound 11, ((2R,3S,4R,5S)-5-(4-aminopyrrolo[2,1-f][1,2,4]triazin-7-yl)-2-cyano-3,4-dihydroxytetrahydrofuran-2-yl)methyl isopropyl carbonate]	0.583 h		37.4 µM	13.2 h	
N#C[C@]1(COC(=O)OC2CCOCC2)O[C@@H](c2ccc3c(N)ncnn23)[C@H](O)[C@@H]1O [Compound 12, ((2R,3S,4R,5S)-5-(4-aminopyrrolo[2,1-f][1,2,4]triazin-7-yl)-2-cyano-3,4-dihydroxytetrahydrofuran-2-yl)methyl (tetrahydro-2H-pyran-4-yl) carbonate]	4.57 h		30.3 µM		
CC(C)(C)OC(=O)OC[C@@]1(C#N)O[C@@H](c2ccc3c(N)ncnn23)[C@H](O)[C@@H]1O [Compound 13, ((2R,3S,4R,5S)-5-(4-aminopyrrolo[2,1-f][1,2,4]triazin-7-yl)-2-cyano-3,4-dihydroxytetrahydrofuran-2-yl)methyl tert-butyl carbonate]	1.2 h	1.6 h			7.67 µM
CCC(CC)OC(=O)OC[C@@]1(C#N)O[C@@H](c2ccc3c(N)ncnn23)[C@H](O)[C@@H]1O [Compound 14, ((2R,3S,4R,5S)-5-(4-aminopyrrolo[2,1-f][1,2,4]triazin-7-yl)-2-cyano-3,4-dihydroxytetrahydrofuran-2-yl)methyl pentan-3-yl carbonate]	0.133 h	8.9 h	50 µM		
CC(C)COC(=O)OC[C@@]1(C#N)O[C@@H](c2ccc3c(N)ncnn23)[C@@H]2OC(=O)O[C@@H]21 [Compound 15, ((3aS,4R,6S,6aS)-6-(4-aminopyrrolo[2,1-f][1,2,4]triazin-7-yl)-4-cyano-2-oxotetrahydrofuro[3,4-d][1,3]dioxol-4-yl)methyl isobutyl carbonate]	0.0333 h	0.2 h	9.15 µM		
N#C[C@]1(COC(=O)O[C@@H]2CCOC2)O[C@@H](c2ccc3c(N)ncnn23)[C@H](O)[C@@H]1O [Compound 24, ((2R,3S,4R,5S)-5-(4-aminopyrrolo[2,1-f][1,2,4]triazin-7-yl)-2-cyano-3,4-dihydroxytetrahydrofuran-2-yl)methyl ((R)-tetrahydrofuran-3-yl) carbonate]	2.45 h		14.1 µM	13.2 h	
N#C[C@]1(COC(=O)O[C@H]2CCOC2)O[C@@H](c2ccc3c(N)ncnn23)[C@H](O)[C@@H]1O [Compound 33, ((2R,3S,4R,5S)-5-(4-aminopyrrolo[2,1-f][1,2,4]triazin-7-yl)-2-cyano-3,4-dihydroxytetrahydrofuran-2-yl)methyl ((S)-tetrahydrofuran-3-yl) carbonate]	2.72 h		18.5 µM	13.2 h	
